In data set [1] the test system is C57BL/6J, B6.B10ScN-Tlr4lps-del/JthJ and C3H/HeJ mice. It is filed as in vivo. As for the experimental part:
The role of TLR-4 in response to an acute increase in free heme was investigated. Wild type C57BL/6J mice and TLR-4 mutant mice B6.B10ScN-Tlr4^lps-del and C3H/HeJ (Poltorak et al. Defective LPS signaling in C3H/HeJ and C57BL/10ScCr mice: mutations in Tlr4 gene. Science. 1998; 282(5396):2085-2088.; Qureshi et al. Endotoxin-tolerant mice have mutations in Toll-like receptor 4 (Tlr4). The J Expt. Med. 1999; 189(4):615-625) were injected intravenously with 210 μmoles/kg hemin, a normally lethal dose. This injection increased free heme concentrations by a magnitude of 50-fold in both wild type and TLR-4 mutant mice (FIG. 6a).
TPH per se, therefore, the involvement of a receptor mediated mechanism was suspected. Several heme receptors have been characterized, including TLR433, which is uniquely expressed by multiple cells in the circulation and therefore accessible to PFPH. Studies were performed in wild-type C57BL/6J mice, and mutant strains, B6.B10ScN-Tlr4lps-del/JthJ and C3H/HeJ, harboring a deletion and a point mutation respectively, in the murine TLR4 gene. Significant elevation of PFPH in these mice required a large dose of heme (210 μmoles/kg) (FIG. 12a), and as expected this amount of heme interfered, transiently with SpO2 measurements characterized by an immediate and dramatic decline. […] This interpretation was supported by a return of SpO2 values to normal in C3H/HeJ but not in the wild-type C57BL/6J mice, indeed, SpO2 deteriorated over time in the latter reminiscent of the decline in SS mice (FIG. 12b). […] These unique pulmonary responses were consistent with survival (FIG. 12d) and lung histology (FIG. 13).

The test system of data set [2] is SS mice. The data set can be described thus: TAK-242 pre-treatment before heme in SS mice. Format: in vivo, mouse. As for the experimental part:
(a, b) The concentration of total and protein-free plasma heme in SS mice following, injections of TAK-242 or intralipid in the absence of exogenous heme. (c, d) Percentage oxygen saturation and breath rate monitored in real-time in SS mice at different stages of the experiment as indicated. Data shown are for a total of nine SS mice (intralipid; n=4, TAK-242; n=5). (e) Survival of SS mice pre-treated with TAK-242 (3 or 5 mg/kg) for 1 h prior to intravenous administration of heme (n=7-13). Control mice were treated with intralipid (n=17). (f) Representative lung H&E staining of SS mice treated with intralipid or TAK-242 one hour prior to administration of heme (35 μmoles/kg). Cumulative lung injury score (n=3). *p<0.05, **p<0.01 and ***p<0.001.
TAK-242 (resatorvid) is a small molecule that binds to Cys747 of the intracellular domain of TLR4 and inhibits downstream signaling. It inhibits the production of lipopolysaccharide (LPS)-induced inflammatory mediators, and it improves survival in LPS-induced sepsis. […] One hour prior to heme administration, a cohort of SS mice were intravenously administered 5 mg/kg of TAK-242, or intralipid. […] Heme had no impact on SpO2 in the majority of TAK-242 treated SS mice (5/6), however it caused an initially subtle yet sustained decrease that deteriorated over time in the intralipid treated mice (FIG. 14c). […] TAK-242 protected 83% of the SS mice from heme induced lethality, compared to 20% in the group given intralipid. These survival data were similar to those obtained in subsequent experiments focused on heme induced lethality (TAK-242; 5/7 (71%) protection, intralipid; 3/12 […] protection). The combined data is shown in FIG. 14e, and is supported by histological analysis (FIG. 14f).

A further data set has as its system NF-κB. The data set can be described thus: NF-κB activation in pulmonary microvascular endothelial cells. The conditions noted are these: PMVECs, hemin 5 or 10 μM. Format: cell-based. An excerpt:
Additionally, the role of NF-κB in the inflammatory response to free heme that occurs in ACS was investigated. Endothelial TLR4, and not neutrophil TLR4, mediates the early stage of the acute sequestration of neutrophils into the lungs in response to systemic LPS (Andonegui et al. Endothelium-derived Toll-like receptor-4 is the key molecule in LPS-induced neutrophil sequestration into lungs. J Clin Invest. 2003; 111(7):1011-1020; Andonegui et al. Mice that exclusively express TLR4 on endothelial cells can efficiently clear a lethal systemic Gram-negative bacterial infection. J Clin Invest. 2009; 119(7): 1921-1930). Thus, pulmonary microvascular endothelial cells (PMVECs) may play a role in the inflammatory response to free heme. […] These include nuclear translocation of p65 NF-κB in PMVECs as determined by immunofluorescence staining and western blot of nuclear extract (FIGS. 7b and 7c, respectively), luciferase reporter gene activity driven by a promoter harboring NF-κB cis elements in PMVECs (FIG. 7d), and TNF-α production (FIG. 7e).

The test system of data set [3] is SS mice.
Data set [4] deals with non-sickle cell disease mice. To be noted: hemin 70 μmoles/kg, Vinchi et al.; cited from earlier work.
Data set [5] has as its system SS mice. The data set can be described thus: Acute prophylaxis with recombinant human hemopexin before heme in SS mice. The conditions noted are these: 1 mg intravenously immediately before heme 35 μmoles/kg. It is filed as in vivo, mouse. As for the experimental part:
Mice were injected with rhHx (n=6), vehicle (n=5) or human IgG (n=3) immediately before administration of heme (35 μmoles/kg). *p<0.05, **p<0.01 and ***p<0.001.
The hemopexin-treated mice were all protected while the control mice succumbed to heme (FIG. 11). Thus, acute prophylaxis using hemopexin may be an attractive therapeutic strategy to block the deleterious effects of PFPH during severe episodes of acute hemolysis in SCD.

Read-outs that look alike come from different tables or passages of the source.

With `C=CC1=C(C)c2cc3[nH]c(cc4[nH]c(cc5nc(cc1n2)C(C)=C5C=C)c(C)c4CCC(=O)[O-])c(CCC(=O)[O-])c3C.[Na+].[Na+]` [Na-PPIX, sodium protoporphyrin IX], the survival entry in data set [1] (injected at the LD100 of heme, C57BL/6J mice) is recorded as “no impact on survival”.
In the case of `CCOC(=O)C1=CCCC[C@H]1S(=O)(=O)Nc1ccc(F)cc1Cl` [TAK-242, resatorvid], the “development of heme induced ALI” value in the data set on SS mice [2] (SCD mice, pre-treatment 1 h before heme) is reported as “prevents”. In addition, in the data set with SS mice [2] (SS mice, absence of exogenous heme), the “scavenging of heme (total and protein-free plasma heme)” value was “did not alter”. Also, the “protection from heme induced lethality” value is 83% with SS mice [2] (TAK-242 5 mg/kg 1 h before heme, SS mice, first cohort) and 71% in the data set with SS mice [2] (subsequent experiments focused on lethality, SS mice). Also, the “SS mice in which heme had no impact on SpO2” value with SS mice [2] (TAK-242 5 mg/kg intravenously 1 h before heme) is listed as 5/6. For the same molecule, in the data set with SS mice [2] (TAK-242 5 mg/kg intravenously 1 h before heme, SS mice), the “breath rate after heme” value is “remained essentially the same”.
For the molecule Fe(III)PPIX [hemin], the “NF-κB activation (p65 nuclear translocation, luciferase reporter, TNF-α production)” value in the data set on NF-κB is given as “dose-dependently activates”. In addition, the “serum ALT” value in the data set with SS mice [3] (SS mice treated with heme, at the median time of death) is reported as “normal”. Besides, the “plasma hemopexin level after heme injection” value in the data set with SS mice [3] (SS mice, heme 35 μmoles/kg, 5-30 min) was “virtually undetectable levels”. Also, the survival in the data set on SS mice [3] (heme 35 μmoles/kg, SS mice with the highest baseline hemopexin level) is reported as 50%; with SS mice [3] (heme 35 μmoles/kg, SS mice with the lowest baseline hemopexin (<0.1 mg/ml)), “none”; in the data set on SS mice [3] (heme 70 μmoles/kg, AS and AA mice), “no impact on survival”; with SS mice [3] (hemin 70 μmoles/kg, young SS mice 5-7 weeks old), 80%. Moreover, the “total plasma heme (TPH) and protein-free plasma heme (PFPH)” value with SS mice [3] (heme 17.5-70 μmoles/kg intravenously, SS mice) was “raised TPH and PFPH in a dose-dependent manner”. For the same molecule, the lethality entry with SS mice [3] (heme 17.5-70 μmoles/kg, SS mice) was “caused lethality in SS mice in a dose-dependent manner”; in the data set with SS mice [3] (hemin 70 μmoles/kg, Townes and Berkeley SCD mice), “caused sudden death”. Besides, the “oxygen saturation (SpO2)” value in the data set on SS mice [3] (hemin 70 μmoles/kg intravenous, SS mice) is given as “sharp drop”. For the same molecule, the “increase of plasma concentration of heme” value in the data set with SS mice [3] (hemin 70 μmoles/kg intravenously, SS and control mice) amounted to 20 fold. The “change in SpO2 or breath rate” value in the data set with SS mice [3] (hemin 70 μmoles/kg, AS mice) is given as “no significant change”. Also, the change in hematocrit entry in the data set on SS mice [3] (hemin 70 μmoles/kg, SS or control mice) was “did not significantly change”. The mortality – broadly, the percentage killed – with SS mice [3] (hemin 70 μmoles/kg, adult SS mice aged 13-27 weeks) is 100%; in data set [1] (hemin 210 μmoles/kg, both types of TLR-4 mutant mice) it was 0%. Besides, the mortality rate in data set [1] (hemin 210 μmoles/kg, wild type C57BL/6J mice, after 90 minutes) is reported as 100%. Also, the “increase of lung permeability” value in data set [4] is 2 fold.
On to Iron mesoporphyrin [Fe(III)MPP-IX], for which, in data set [1] (mouse, in vivo), the survival entry is recorded as “no impact on survival”.

B1: recombinant human hemopexin: recombinant human hemopexin, a protein that binds free heme for transport to the liver (protein, UniProt P02790 24-462, looked up)
Hemopexin: TPLPPTSAHGNVAEGETKPDPDVTERCSDGWSFDATTLDDNGTMLFFKGEFVWKSHKWDRELISERWKNFPSPVDAAFRQGHNSVFLIKGDKVWVYPPEKKEKGYPKLLQDEFPGIPSPLDAAVECHRGECQAEGVLFFQGDREWFWDLATGTMKERSWPAVGNCSSALRWLGRYYCFQGNQFLRFDPVRGEVPPRYPRDVRDYFMPCPGRGHGHRNGTGHGNSTHHGPEYMRCSPHLVLSALTSDNHGATYAFSGTHYWRLDTSRDGWHSWPIAHQWPQGPSAVDAAFSWEEKLYLVQGTQVYVFLTKGGYTLVSGYPKRLEKEVGTPHGIILDSVDAAFICPGSSRLHIMAGRRLWWLDLKSGAQATWTELPWPHEKVDGALCMEKSLGPNSCSANGPGLYLIHGPNLYCYSDVEKLNAAKALPQPQNVTSLLGCTH
Turning to B1, the “protection from heme induced lethality” value in the data set with SS mice [5] is “all protected”; in the data set with SS mice [5] (listed as rhHx), “protects”.

These data come from patent publication US20130123185A1, “METHODS OF TREATING AND DIAGNOSING ACUTE CHEST SYNDROME” (EMORY UNIVERSITY, priority 2010, published 2013).
